Here are results for ten compounds from patent US20260373138A1, “COMPOUNDS WITH ANTIFUNGAL PROPERTIES” (priority 2023, published 2026).

Experiment [1] deals with Aspergillus fumigatus SrbA pathway. The conditions noted are these: phenotype of SrbA pathway inhibition, previously published; cited from earlier work.
Experiment [2] has as its system A. fumigatus CEA10 reference strain. Nature of the experiment: Fluconazole potentiator screen: MIC by CLSI microbroth dilution with and without fluconazole. The conditions noted are these: for MIC: Aspergillus fumigatus, read-out: MIC (ug/mL) (−) Fluc; for MIC / MIC (ug/mL) (+) Fluc: 18 h; for MIC (ug/mL) (+) Fluc: with 32 μg/ml fluconazole, normoxia, GMM, 37 °C. In kind it is cell-based, Aspergillus fumigatus. In general terms: In broth dilution the organism is exposed to a series of concentrations in liquid medium.

SMILES strings stand for the structures. Bounds are passed on as bounds.

On to `OC(Cn1cncn1)(Cn1cncn1)c1ccc(F)cc1F` [fluconazole], for which the MIC to fluconazole in experiment [1] is below 8 µg/mL.
For `O=C(c1ccsc1)N1CCC(Cc2ccc(COc3ccncc3)nc2)CC1` [MBX-8323], in experiment [2], the MIC was 2.4 µg/mL and the “MIC (ug/mL) (+) Fluc” value amounted to 1.20 µg/mL.
The like results for `O=C(c1ccc2scnc2c1)N1CCC(Cc2ccc(COc3ccncc3)cc2)CC1` [MBX-8097] were, in that order, above 22 µg/mL and above 22 µg/mL.
With `O=C(c1cccnc1)N1CCC(Cc2ccc(COc3ccncc3)cc2)CC1` [MBX-7730], in experiment [2], the MIC turned out to be 15 µg/mL and the “MIC (ug/mL) (+) Fluc” value was determined as 7.70 µg/mL. For the same compound, in experiment [2] (structure-activity statements, fluconazole potentiator screen), the “potency / potentiation of fluconazole (in words)” value is listed as “did not result in appreciable increase in potency”.
Take `O=S(=O)(c1ccccn1)N1CCC2(CC1)CC(CCOc1ccncc1)CCO2` (centres unmarked) [MBX-7873]: in experiment [2], the MIC is above 16 µg/mL and the “MIC (ug/mL) (+) Fluc” value was above 16 µg/mL.
In the case of `O=S(=O)(c1cccc(Cl)c1)N1CCC2(CC1)CC(CCOc1ccncc1)CCO2` (centres unmarked) [MBX-7872], in experiment [2], the MIC was above 18 µg/mL and the “MIC (ug/mL) (+) Fluc” value is 6.38 µg/mL.
The like results for `Cc1ccc(S(=O)(=O)N2CCC3(CC2)CC(CCOc2ccncc2)CCO3)s1` (centres unmarked) [MBX-8144] were, in that order, 0.77 µg/mL and 0.21 µg/mL.
The matching figures for `O=C(c1cccs1)N1CCC2(CC1)CC(CCOc1ccncc1)CCO2` (centres unmarked) [MBX-8394]: 19 µg/mL and 9.70 µg/mL.
For `O=C(Nc1ccsc1)N1CCC(Cc2ccc(COc3ccncc3)cc2)CC1` [MBX-7805], in experiment [2], the MIC was above 16 µg/mL and the “MIC (ug/mL) (+) Fluc” value is above 16 µg/mL.
The matching figures for `Cc1cc(CN2CCOCC2)ccc1CC1CCN(S(=O)(=O)c2ccc(F)cc2)CC1` [MBX-8346]: 1.1 µg/mL and 0.15 µg/mL.
